Source: patent US12077503B2, “Substituted cyclic amides and their use as herbicides” (FMC CORPORATION, priority 2015, dated 2024)

How the values were obtained:
Format in all cases: in vivo
Kochia (Kochia scoparia) [1] = test: Test A preemergence; settings: Bassia scoparia, pre-emergence, 240 h, preemergence, 0 to 100 scale where 0 is no effect and 100 is complete control, read-out: Kochia plant response rating; for pest or weed control at 125 g/ha: 125 g ai/ha, visual injury rating, approximately 10 d; for pest or weed control at 500 g/ha: 500 g ai/ha
Procedure, shortened: (§1)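 Treatment is preemergence as a directed soil spray after planting, or postemergence at the one- to two-leaf stage, with test chemical in a non-phytotoxic solvent mixture plus surfactant. Plants stay in the greenhouse about 10 d before visual injury scoring on a 0 to 100 scale versus untreated controls.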

[2] = tested on: barnyardgrass (Echinochloa crus-galli); test: Test A preemergence; settings: Echinochloa crus-galli, pre-emergence, 240 h, preemergence, 0 to 100 scale where 0 is no effect and 100 is complete control, read-out: Barnyardgrass plant response rating; for pest or weed control at 125 g/ha: 125 g ai/ha, visual injury rating, approximately 10 d; for pest or weed control at 500 g/ha: 500 g ai/ha
Procedure, shortened: as §1

[3] = tested on: giant foxtail (Setaria faberii); test: Test A preemergence; settings: Setaria faberi, pre-emergence, 240 h, preemergence, 0 to 100 scale where 0 is no effect and 100 is complete control, read-out: Foxtail, Giant plant response rating; for pest or weed control at 125 g/ha: 125 g ai/ha, visual injury rating, approximately 10 d; for pest or weed control at 500 g/ha: 500 g ai/ha
Procedure, shortened: as §1

[4] = tested on: pigweed (Amaranthus retroflexus); test: Test A preemergence; settings: Amaranthus retroflexus, pre-emergence, 240 h, preemergence, 0 to 100 scale where 0 is no effect and 100 is complete control, read-out: Pigweed plant response rating; for pest or weed control at 125 g/ha: 125 g ai/ha, visual injury rating, approximately 10 d; for pest or weed control at 500 g/ha: 500 g ai/ha
[5] = tested on: ragweed (common ragweed, Ambrosia elatior); test: Test A preemergence; settings: Ambrosia artemisiifolia, pre-emergence, 240 h, preemergence, 0 to 100 scale where 0 is no effect and 100 is complete control, read-out: Ragweed plant response rating; for pest or weed control at 125 g/ha: 125 g ai/ha, visual injury rating, approximately 10 d; for pest or weed control at 500 g/ha: 500 g ai/ha
Procedure, shortened: as §1

[6] = tested on: ryegrass, Italian (Italian ryegrass, Lolium multiflorum); test: Test A preemergence; settings: Lolium multiflorum, pre-emergence, 240 h, preemergence, 0 to 100 scale where 0 is no effect and 100 is complete control, read-out: Ryegrass, Italian plant response rating; for pest or weed control at 125 g/ha: 125 g ai/ha, visual injury rating, approximately 10 d; for pest or weed control at 500 g/ha: 500 g ai/ha
Procedure, shortened: as §1

[7] = tested on: Galium (catchweed bedstraw, Galium aparine); test: Test A postemergence; settings: Galium, post-emergence, 240 h, postemergence; for pest or weed control at 125 g/ha: 125 g ai/ha, visual injury vs untreated controls after approx. 10 d, 0 = no effect, 100 = complete control, read-out: Galium plant response rating (0 to 100 scale); for pest or weed control at 500 g/ha: 500 g ai/ha, 0 to 100 scale, 0 is no effect, 100 is complete control, read-out: Galium plant response rating
Procedure, shortened: as §1

Kochia (Kochia scoparia) [8] = test: Test A postemergence; settings: Bassia scoparia, post-emergence, 240 h, postemergence; for pest or weed control at 125 g/ha: 125 g ai/ha, visual injury vs untreated controls after approx. 10 d, 0 = no effect, 100 = complete control, read-out: Kochia plant response rating (0 to 100 scale); for pest or weed control at 500 g/ha: 500 g ai/ha, 0 to 100 scale, 0 is no effect, 100 is complete control, read-out: Kochia plant response rating
Procedure, shortened: as §1

[9] = tested on: barnyardgrass (Echinochloa crus-galli); test: Test A postemergence; settings: Echinochloa crus-galli, post-emergence, 240 h, postemergence; for pest or weed control at 125 g/ha: 125 g ai/ha, visual injury vs untreated controls after approx. 10 d, 0 = no effect, 100 = complete control, read-out: Barnyardgrass plant response rating (0 to 100 scale); for pest or weed control at 500 g/ha: 500 g ai/ha, 0 to 100 scale, 0 is no effect, 100 is complete control, read-out: Barnyardgrass plant response rating
Procedure, shortened: as §1

[10] = tested on: blackgrass (Alopecurus myosuroides); test: Test A postemergence; settings: Alopecurus myosuroides, post-emergence, 240 h, postemergence; for pest or weed control at 125 g/ha: 125 g ai/ha, visual injury vs untreated controls after approx. 10 d, 0 = no effect, 100 = complete control, read-out: Blackgrass plant response rating (0 to 100 scale); for pest or weed control at 500 g/ha: 500 g ai/ha, 0 to 100 scale, 0 is no effect, 100 is complete control, read-out: Blackgrass plant response rating
Procedure, shortened: as §1

corn (Zea mays) = test: Test A postemergence; settings: Zea mays, post-emergence, 240 h, postemergence; for plant injury at 125 g/ha: 125 g ai/ha, visual injury vs untreated controls after approx. 10 d, 0 = no effect, 100 = complete control, read-out: Corn plant response rating (0 to 100 scale); for plant injury at 500 g/ha: 500 g ai/ha, 0 to 100 scale, 0 is no effect, 100 is complete control, read-out: Corn plant response rating
Procedure, shortened: as §1

[11] = tested on: giant foxtail (Setaria faberii); test: Test A postemergence; settings: Setaria faberi, post-emergence, 240 h, postemergence; for pest or weed control at 125 g/ha: 125 g ai/ha, visual injury vs untreated controls after approx. 10 d, 0 = no effect, 100 = complete control, read-out: Foxtail, Giant plant response rating (0 to 100 scale); for pest or weed control at 500 g/ha: 500 g ai/ha, 0 to 100 scale, 0 is no effect, 100 is complete control, read-out: Foxtail, Giant plant response rating
Procedure, shortened: as §1

[12] = tested on: pigweed (Amaranthus retroflexus); test: Test A postemergence; settings: Amaranthus retroflexus, post-emergence, 240 h, postemergence; for pest or weed control at 125 g/ha: 125 g ai/ha, visual injury vs untreated controls after approx. 10 d, 0 = no effect, 100 = complete control, read-out: Pigweed plant response rating (0 to 100 scale); for pest or weed control at 500 g/ha: 500 g ai/ha, 0 to 100 scale, 0 is no effect, 100 is complete control, read-out: Pigweed plant response rating
Procedure, shortened: as §1

[13] = tested on: ryegrass, Italian (Italian ryegrass, Lolium multiflorum); test: Test A postemergence; settings: Lolium multiflorum, post-emergence, 240 h, postemergence; for pest or weed control at 125 g/ha: 125 g ai/ha, visual injury vs untreated controls after approx. 10 d, 0 = no effect, 100 = complete control, read-out: Ryegrass, Italian plant response rating (0 to 100 scale); for pest or weed control at 500 g/ha: 500 g ai/ha, 0 to 100 scale, 0 is no effect, 100 is complete control, read-out: Ryegrass, Italian plant response rating
Procedure, shortened: as §1

[14] = tested on: wheat (Triticum aestivum); test: Test A postemergence; settings: Triticum aestivum, post-emergence, 240 h, postemergence; for plant injury at 125 g/ha: 125 g ai/ha, visual injury vs untreated controls after approx. 10 d, 0 = no effect, 100 = complete control, read-out: Wheat plant response rating (0 to 100 scale); for plant injury at 500 g/ha: 500 g ai/ha, 0 to 100 scale, 0 is no effect, 100 is complete control, read-out: Wheat plant response rating
Procedure, shortened: as §1

SMILES	pest or weed control at 125 g/ha (Kochia (Kochia scoparia) [1])	pest or weed control at 500 g/ha (Kochia (Kochia scoparia) [1])	pest or weed control at 125 g/ha [2]	pest or weed control at 500 g/ha [2]	pest or weed control at 125 g/ha [3]	pest or weed control at 500 g/ha [3]	pest or weed control at 125 g/ha [4]	pest or weed control at 500 g/ha [4]	pest or weed control at 125 g/ha [5]	pest or weed control at 500 g/ha [5]	pest or weed control at 125 g/ha [6]	pest or weed control at 500 g/ha [6]	pest or weed control at 125 g/ha [7]	pest or weed control at 500 g/ha [7]	pest or weed control at 125 g/ha (Kochia (Kochia scoparia) [8])	pest or weed control at 500 g/ha (Kochia (Kochia scoparia) [8])	pest or weed control at 125 g/ha [9]	pest or weed control at 500 g/ha [9]	pest or weed control at 125 g/ha [10]	pest or weed control at 500 g/ha [10]	other results
CSc1ccccc1NC(=O)[C@H]1C(=O)N(C)C[C@@H]1c1ccc(C(F)(F)F)nc1 [Compound 1198]	80%	80%	70%	100%	100%	100%	70%	100%	70%	100%	30%	60%	40%	50%	60%	60%	80%	90%	20%	60%	plant injury at 125 g/ha (corn (Zea mays)): 0%; plant injury at 500 g/ha (corn (Zea mays)): 20%; pest or weed control at 125 g/ha [11]: 80%; pest or weed control at 500 g/ha [11]: 90%; pest or weed control at 125 g/ha [12]: 40%; pest or weed control at 500 g/ha [12]: 70%; pest or weed control at 125 g/ha [13]: 0%; pest or weed control at 500 g/ha [13]: 30%; plant injury at 125 g/ha [14]: 0%; plant injury at 500 g/ha [14]: 60%
CN1C[C@H](c2ccc(C#N)cc2)[C@@H](C(=O)Nc2ccccc2F)C1=O [Compound 1207]	30%	90%	60%	100%	80%	100%	0%	60%	30%	90%	0%	20%	20%	40%	20%	60%	70%	100%	0%	0%	plant injury at 125 g/ha (corn (Zea mays)): 0%; plant injury at 500 g/ha (corn (Zea mays)): 0%; pest or weed control at 125 g/ha [11]: 50%; pest or weed control at 500 g/ha [11]: 90%; pest or weed control at 125 g/ha [12]: 0%; pest or weed control at 500 g/ha [12]: 20%; pest or weed control at 125 g/ha [13]: 0%; pest or weed control at 500 g/ha [13]: 0%; plant injury at 125 g/ha [14]: 0%; plant injury at 500 g/ha [14]: 0%
CN1C[C@H](c2ccc(C#N)cc2)[C@@H](C(=O)Nc2cccc(F)c2F)C1=O [Compound 1208]	70%	100%	90%	100%	100%	100%	60%	90%	40%	100%	20%	70%	40%	50%	70%	70%	100%	100%	0%	0%	plant injury at 125 g/ha (corn (Zea mays)): 20%; plant injury at 500 g/ha (corn (Zea mays)): 50%; pest or weed control at 125 g/ha [11]: 70%; pest or weed control at 500 g/ha [11]: 90%; pest or weed control at 125 g/ha [12]: 30%; pest or weed control at 500 g/ha [12]: 60%; pest or weed control at 125 g/ha [13]: 0%; pest or weed control at 500 g/ha [13]: 0%; plant injury at 125 g/ha [14]: 0%; plant injury at 500 g/ha [14]: 20%
